Key:
in vivo [1] = conditions: BALB/c, mouse, iv, 1 mg/kg
in vivo [2] = conditions: BALB/c, mouse, po, 10 mg/kg
in vivo [3] = conditions: BALB/c, mouse, po, 10 mg/kg; remark: listed apart in the source
in vivo [4] = conditions: BALB/c, mouse, iv, 1 mg/kg; remark: listed apart in the source
in vivo [5] = conditions: BALB/c, mouse, iv, 1 mg/kg; remark: listed apart in the source
in vivo [6] = conditions: BALB/c, mouse, po, 10 mg/kg; remark: listed apart in the source

A clearance at 24 h (in vivo [1]) of 86.7 mL/min/kg, a bioavailability at 24 h (in vivo [2]) of 45.6% and a Cmax at 24 h (in vivo [3]) of 747 ng/mL were found for CC(C)(O)c1cc(Nc2cc(Oc3cn(C4CC4)nc3C3CCOCC3)ccn2)ccn1 [LY-3200882] in this work. The Vd at 24 h (in vivo [4]) was 2.3 L/kg, the half-life at 24 h (in vivo [5]) was 24 min and the half-life at 24 h (in vivo [6]) was 66 min.

From ChEMBL document CHEMBL4765311, “Synthesis and biological evaluation of 4-(pyridin-4-oxy)-3-(3,3-difluorocyclobutyl)-pyrazole derivatives as novel potent transforming growth factor-β type 1 receptor inhibitors” (Eur J Med Chem, 2020)
